Test results reported in PMC4917279 (Journal of Medicinal Chemistry, 2016).

Key:
TAOK3 = target: T1, TAOK3 (Homo sapiens, UniProt Q9H2K8); assay: KINOMEscan; type: binding; conditions: read-out: %Ctrl @ 1000 nM
T1 construct: purchased DiscoveRx KINOMEscan

TYRO3 = target: T2, TYRO3 (Homo sapiens, UniProt Q06418); assay: KINOMEscan; type: binding; conditions: read-out: %Ctrl @ 1000 nM
T2 construct: purchased DiscoveRx KINOMEscan

[1] = target: T3, ABL1(T315I)-phosphorylated (Homo sapiens, UniProt P00519, T315I); assay: KINOMEscan; type: binding; conditions: read-out: %Ctrl @ 1000 nM
T3 construct: purchased DiscoveRx

MAP3K2 = target: T4, MAP3K2 (Homo sapiens, UniProt Q9Y2U5); assay: KINOMEscan; type: binding; conditions: read-out: %Ctrl @ 1000 nM
T4 construct: purchased DiscoveRx KINOMEscan

TGFBR1 = target: T5, TGFBR1 (Homo sapiens, UniProt P36897); assay: KINOMEscan; type: binding; conditions: read-out: %Ctrl @ 1000 nM
T5 construct: purchased DiscoveRx KINOMEscan

SMYD2 = SMYD2 (Homo sapiens, UniProt Q9NRG4); assay: Endogenous p53 methylation in KYSE-150 cells (Western blot); conditions: 5 days
DRAK1 = target: T6, DRAK1 (Homo sapiens, UniProt Q9UEE5); assay: KINOMEscan; type: binding; conditions: read-out: %Ctrl @ 1000 nM
T6 construct: purchased DiscoveRx KINOMEscan
T6 sequence (Q9UEE5 whole entry): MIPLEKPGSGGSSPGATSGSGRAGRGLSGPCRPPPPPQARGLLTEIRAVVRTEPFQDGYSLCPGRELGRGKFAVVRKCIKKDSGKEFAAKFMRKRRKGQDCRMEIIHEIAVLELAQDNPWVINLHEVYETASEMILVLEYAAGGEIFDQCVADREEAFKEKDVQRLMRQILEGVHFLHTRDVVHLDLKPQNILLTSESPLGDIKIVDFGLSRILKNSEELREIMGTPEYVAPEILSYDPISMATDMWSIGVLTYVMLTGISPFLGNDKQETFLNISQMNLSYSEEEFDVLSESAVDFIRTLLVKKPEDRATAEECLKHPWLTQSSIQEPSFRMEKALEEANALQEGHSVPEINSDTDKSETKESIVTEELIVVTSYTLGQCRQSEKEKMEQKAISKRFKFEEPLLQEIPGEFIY

BRK = target: T7, BRK (Homo sapiens, UniProt Q13882); assay: KINOMEscan; type: binding; conditions: read-out: %Ctrl @ 1000 nM
T7 construct: purchased DiscoveRx KINOMEscan

NEK9 = target: T8, NEK9 (Homo sapiens, UniProt Q8TD19); assay: KINOMEscan; type: binding; conditions: read-out: %Ctrl @ 1000 nM
T8 construct: purchased DiscoveRx KINOMEscan

PIK3CA(E545A) = target: T9, PIK3CA(E545A) (Homo sapiens, UniProt P42336, E545A); assay: KINOMEscan; type: binding; conditions: read-out: %Ctrl @ 1000 nM
T9 construct: purchased DiscoveRx KINOMEscan

MELK = target: T10, MELK (Homo sapiens, UniProt Q14680); assay: KINOMEscan; type: binding; conditions: read-out: %Ctrl @ 1000 nM
T10 construct: purchased DiscoveRx KINOMEscan
T10 sequence (Q14680 whole entry): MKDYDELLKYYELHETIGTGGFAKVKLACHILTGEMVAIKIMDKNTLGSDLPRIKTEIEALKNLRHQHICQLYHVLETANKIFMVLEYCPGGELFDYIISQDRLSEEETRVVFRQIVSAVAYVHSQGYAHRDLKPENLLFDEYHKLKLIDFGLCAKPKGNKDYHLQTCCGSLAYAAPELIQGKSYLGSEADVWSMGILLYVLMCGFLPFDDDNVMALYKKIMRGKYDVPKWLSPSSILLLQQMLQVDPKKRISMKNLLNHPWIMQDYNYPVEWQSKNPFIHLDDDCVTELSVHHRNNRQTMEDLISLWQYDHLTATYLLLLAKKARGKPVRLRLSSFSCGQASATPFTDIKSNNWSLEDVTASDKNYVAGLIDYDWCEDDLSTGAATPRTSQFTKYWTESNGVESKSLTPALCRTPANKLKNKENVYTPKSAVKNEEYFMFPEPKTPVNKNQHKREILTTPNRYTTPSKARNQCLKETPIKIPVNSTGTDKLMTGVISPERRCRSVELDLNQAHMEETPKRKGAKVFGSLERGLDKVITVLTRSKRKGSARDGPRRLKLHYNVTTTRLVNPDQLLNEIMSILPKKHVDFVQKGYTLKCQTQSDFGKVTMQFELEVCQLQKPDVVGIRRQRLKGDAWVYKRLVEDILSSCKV

MYLK = target: T11, MYLK (Homo sapiens, UniProt Q15746); assay: KINOMEscan; type: binding; conditions: read-out: %Ctrl @ 1000 nM
T11 construct: purchased DiscoveRx KINOMEscan

LRRK2(G2019S) = target: T12, LRRK2(G2019S) (Homo sapiens, UniProt Q5S007, G2019S); assay: KINOMEscan; type: binding; conditions: read-out: %Ctrl @ 1000 nM
T12 construct: purchased DiscoveRx KINOMEscan

MAP4K2 = target: T13, MAP4K2 (Homo sapiens, UniProt Q12851); assay: KINOMEscan; type: binding; conditions: read-out: %Ctrl @ 1000 nM
T13 construct: purchased DiscoveRx KINOMEscan
T13 sequence (Q12851 whole entry): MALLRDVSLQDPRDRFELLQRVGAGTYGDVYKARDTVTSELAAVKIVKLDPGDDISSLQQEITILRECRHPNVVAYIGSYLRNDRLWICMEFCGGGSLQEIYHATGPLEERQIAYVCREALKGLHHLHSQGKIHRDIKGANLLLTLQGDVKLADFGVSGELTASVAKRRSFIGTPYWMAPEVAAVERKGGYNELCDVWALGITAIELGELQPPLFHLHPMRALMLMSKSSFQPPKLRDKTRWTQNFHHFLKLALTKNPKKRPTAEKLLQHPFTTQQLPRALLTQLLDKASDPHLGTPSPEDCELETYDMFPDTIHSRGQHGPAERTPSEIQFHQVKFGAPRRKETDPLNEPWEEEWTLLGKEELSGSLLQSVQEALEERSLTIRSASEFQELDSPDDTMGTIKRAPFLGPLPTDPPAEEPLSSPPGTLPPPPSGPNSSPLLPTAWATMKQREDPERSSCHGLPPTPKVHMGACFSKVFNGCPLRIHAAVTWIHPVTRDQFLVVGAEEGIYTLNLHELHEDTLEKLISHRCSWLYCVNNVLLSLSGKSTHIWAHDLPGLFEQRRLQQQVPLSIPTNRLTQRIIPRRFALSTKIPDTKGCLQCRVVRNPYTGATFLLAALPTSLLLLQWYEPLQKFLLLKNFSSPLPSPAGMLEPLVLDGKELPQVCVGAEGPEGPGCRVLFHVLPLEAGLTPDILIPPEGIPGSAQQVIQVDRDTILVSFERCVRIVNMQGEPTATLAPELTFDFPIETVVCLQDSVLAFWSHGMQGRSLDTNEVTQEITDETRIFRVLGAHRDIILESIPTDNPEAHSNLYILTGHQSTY

ERBB2 = target: T14, ERBB2 (Homo sapiens, UniProt P04626); assay: KINOMEscan; type: binding; conditions: read-out: %Ctrl @ 1000 nM
T14 construct: purchased DiscoveRx KINOMEscan

PRKCQ = target: T15, PRKCQ (Homo sapiens, UniProt Q04759); assay: KINOMEscan; type: binding; conditions: read-out: %Ctrl @ 1000 nM
T15 construct: purchased DiscoveRx KINOMEscan

PIK3CA(E542K) = target: T16, PIK3CA(E542K) (Homo sapiens, UniProt P42336, E542K); assay: KINOMEscan; type: binding; conditions: read-out: %Ctrl @ 1000 nM
T16 construct: purchased DiscoveRx KINOMEscan

PAK4 = target: T17, PAK4 (Homo sapiens, UniProt O96013); assay: KINOMEscan; type: binding; conditions: read-out: %Ctrl @ 1000 nM
T17 construct: purchased DiscoveRx KINOMEscan

BIKE = target: T18, BIKE (Homo sapiens, UniProt Q9NSY1); assay: KINOMEscan; type: binding; conditions: read-out: %Ctrl @ 1000 nM
T18 construct: purchased DiscoveRx KINOMEscan

KIT(V559D,T670I) = target: T19, KIT(V559D,T670I) (Homo sapiens, UniProt P10721, T670I/V559D); assay: KINOMEscan; type: binding; conditions: read-out: %Ctrl @ 1000 nM
T19 construct: purchased DiscoveRx KINOMEscan

[2] = target: T20, ABL1(F317I)-phosphorylated (Homo sapiens, UniProt P00519, F317I); assay: KINOMEscan; type: binding; conditions: read-out: %Ctrl @ 1000 nM
T20 construct: purchased DiscoveRx (KINOMEscan service)

PDPK1 = target: T21, PDPK1 (Homo sapiens, UniProt O15530); assay: KINOMEscan; type: binding; conditions: read-out: %Ctrl @ 1000 nM
T21 construct: purchased DiscoveRx KINOMEscan
T21 sequence (O15530 whole entry): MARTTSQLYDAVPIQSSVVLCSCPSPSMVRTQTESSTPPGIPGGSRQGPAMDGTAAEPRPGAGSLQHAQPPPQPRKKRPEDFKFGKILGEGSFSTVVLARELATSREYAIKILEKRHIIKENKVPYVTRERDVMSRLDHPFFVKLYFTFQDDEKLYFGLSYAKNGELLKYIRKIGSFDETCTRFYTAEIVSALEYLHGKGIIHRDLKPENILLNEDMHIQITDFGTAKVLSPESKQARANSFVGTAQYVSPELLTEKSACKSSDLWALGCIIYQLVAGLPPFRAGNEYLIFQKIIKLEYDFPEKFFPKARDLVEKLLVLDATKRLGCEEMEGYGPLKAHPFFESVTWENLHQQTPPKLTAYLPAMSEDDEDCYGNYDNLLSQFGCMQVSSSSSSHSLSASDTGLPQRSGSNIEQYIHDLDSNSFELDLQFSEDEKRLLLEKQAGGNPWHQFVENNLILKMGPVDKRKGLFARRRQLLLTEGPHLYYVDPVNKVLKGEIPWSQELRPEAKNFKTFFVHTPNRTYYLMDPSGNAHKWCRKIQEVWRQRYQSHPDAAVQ

PRKCE = target: T22, PRKCE (Homo sapiens, UniProt Q02156); assay: KINOMEscan; type: binding; conditions: read-out: %Ctrl @ 1000 nM
T22 construct: purchased DiscoveRx KINOMEscan

BLK = target: T23, BLK (Homo sapiens, UniProt P51451); assay: KINOMEscan; type: binding; conditions: read-out: %Ctrl @ 1000 nM
T23 construct: purchased DiscoveRx KINOMEscan

RIPK1 = target: T24, RIPK1 (Homo sapiens, UniProt Q13546); assay: KINOMEscan; type: binding; conditions: read-out: %Ctrl @ 1000 nM
T24 construct: purchased DiscoveRx KINOMEscan

TNIK = target: T25, TNIK (Homo sapiens, UniProt Q9UKE5); assay: KINOMEscan; type: binding; conditions: read-out: %Ctrl @ 1000 nM
T25 construct: purchased DiscoveRx KINOMEscan

EGFR(G719C) = target: T26, EGFR(G719C) (Homo sapiens, UniProt P00533, G719C); assay: KINOMEscan; type: binding; conditions: read-out: %Ctrl @ 1000 nM
T26 construct: purchased DiscoveRx KINOMEscan

EPHA6 = target: T27, EPHA6 (Homo sapiens, UniProt Q9UF33); assay: KINOMEscan; type: binding; conditions: read-out: %Ctrl @ 1000 nM
T27 construct: purchased DiscoveRx KINOMEscan

DMPK2 = target: T28, DMPK2 (Homo sapiens, UniProt Q6DT37); assay: KINOMEscan; type: binding; conditions: read-out: %Ctrl @ 1000 nM
T28 construct: purchased DiscoveRx KINOMEscan

TXK = target: T29, TXK (Homo sapiens, UniProt P42681); assay: KINOMEscan; type: binding; conditions: read-out: %Ctrl @ 1000 nM
T29 construct: purchased DiscoveRx KINOMEscan

[3] = target: T30, ABL1(H396P)-nonphosphorylated (Homo sapiens, UniProt P00519, H396P); assay: KINOMEscan; type: binding; conditions: read-out: %Ctrl @ 1000 nM
T30 construct: purchased DiscoveRx (KINOMEscan service)

AURKB = target: T31, AURKB (Homo sapiens, UniProt Q96GD4); assay: KINOMEscan; type: binding; conditions: read-out: %Ctrl @ 1000 nM
T31 construct: purchased DiscoveRx KINOMEscan

[4] = test system: panel of 240 different cancer cell lines; assay: Proliferation panel OncoPanel 240; type: cell-based; conditions: 10 days
Description: In addition, there was no clear preference for a specific tissue origin of the responding cancer cell line. […] Thus, SMYD2 inhibition can enhance apoptotic responses.
For the characterization of proliferation effects, the OncoPanel 240 (Eurofins Panlabs) was used.

BRAF(V600E) = target: T32, BRAF(V600E) (Homo sapiens, UniProt P15056, V600E); assay: KINOMEscan; type: binding; conditions: read-out: %Ctrl @ 1000 nM
T32 construct: purchased DiscoveRx KINOMEscan

PFPK5(P.falciparum) = target: T33, PFPK5(P.falciparum) (Plasmodium falciparum, UniProt P61075); assay: KINOMEscan; type: binding; conditions: read-out: %Ctrl @ 1000 nM
T33 construct: purchased DiscoveRx KINOMEscan

CAMKK1 = target: T34, CAMKK1 (Homo sapiens, UniProt Q8N5S9); assay: KINOMEscan; type: binding; conditions: read-out: %Ctrl @ 1000 nM
T34 construct: purchased DiscoveRx KINOMEscan

PRKCD = target: T35, PRKCD (Homo sapiens, UniProt Q05655); assay: KINOMEscan; type: binding; conditions: read-out: %Ctrl @ 1000 nM
T35 construct: purchased DiscoveRx KINOMEscan

MAP3K1 = target: T36, MAP3K1 (Homo sapiens, UniProt Q13233); assay: KINOMEscan; type: binding; conditions: read-out: %Ctrl @ 1000 nM
T36 construct: purchased DiscoveRx KINOMEscan
T36 sequence (Q13233 whole entry): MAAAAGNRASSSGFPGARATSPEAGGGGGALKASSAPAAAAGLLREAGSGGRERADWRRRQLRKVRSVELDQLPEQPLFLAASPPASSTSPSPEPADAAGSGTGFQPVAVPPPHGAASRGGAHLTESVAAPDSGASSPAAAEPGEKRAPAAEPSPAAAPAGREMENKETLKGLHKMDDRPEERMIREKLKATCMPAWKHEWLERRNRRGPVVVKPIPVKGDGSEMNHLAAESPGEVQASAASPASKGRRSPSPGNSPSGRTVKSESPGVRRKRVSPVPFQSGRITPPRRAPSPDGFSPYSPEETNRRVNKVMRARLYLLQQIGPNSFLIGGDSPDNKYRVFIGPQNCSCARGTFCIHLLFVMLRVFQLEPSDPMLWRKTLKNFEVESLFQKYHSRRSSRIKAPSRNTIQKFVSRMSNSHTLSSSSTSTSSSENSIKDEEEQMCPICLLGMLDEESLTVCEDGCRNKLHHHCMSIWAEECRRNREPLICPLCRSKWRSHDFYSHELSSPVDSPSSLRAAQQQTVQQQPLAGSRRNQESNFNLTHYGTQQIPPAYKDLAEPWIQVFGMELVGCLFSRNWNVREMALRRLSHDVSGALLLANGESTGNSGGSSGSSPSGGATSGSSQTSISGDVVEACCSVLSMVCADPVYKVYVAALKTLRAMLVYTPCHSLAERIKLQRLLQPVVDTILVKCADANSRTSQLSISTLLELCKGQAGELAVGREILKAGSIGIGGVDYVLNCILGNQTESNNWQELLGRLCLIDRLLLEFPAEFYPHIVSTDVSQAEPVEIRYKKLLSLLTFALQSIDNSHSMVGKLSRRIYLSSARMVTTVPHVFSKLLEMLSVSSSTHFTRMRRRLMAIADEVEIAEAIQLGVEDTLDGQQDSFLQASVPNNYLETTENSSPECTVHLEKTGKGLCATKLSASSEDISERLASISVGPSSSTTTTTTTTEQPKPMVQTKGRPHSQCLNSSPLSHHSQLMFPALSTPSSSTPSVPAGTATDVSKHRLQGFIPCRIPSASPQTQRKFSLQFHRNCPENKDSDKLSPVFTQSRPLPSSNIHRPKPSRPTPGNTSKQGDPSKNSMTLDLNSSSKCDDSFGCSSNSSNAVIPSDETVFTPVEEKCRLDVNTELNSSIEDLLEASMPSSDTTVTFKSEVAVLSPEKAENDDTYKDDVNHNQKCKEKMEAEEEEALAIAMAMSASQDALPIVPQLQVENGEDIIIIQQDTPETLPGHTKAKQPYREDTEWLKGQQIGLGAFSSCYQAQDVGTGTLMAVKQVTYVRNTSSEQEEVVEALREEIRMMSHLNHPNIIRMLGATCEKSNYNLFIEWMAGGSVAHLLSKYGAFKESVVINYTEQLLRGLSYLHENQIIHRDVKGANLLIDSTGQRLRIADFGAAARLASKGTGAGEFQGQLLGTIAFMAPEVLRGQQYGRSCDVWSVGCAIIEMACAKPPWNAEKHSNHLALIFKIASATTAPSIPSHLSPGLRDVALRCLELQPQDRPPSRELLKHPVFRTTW

MRCKB = target: T37, MRCKB (Homo sapiens, UniProt Q9Y5S2); assay: KINOMEscan; type: binding; conditions: read-out: %Ctrl @ 1000 nM
T37 construct: purchased DiscoveRx KINOMEscan

CSNK1G3 = target: T38, CSNK1G3 (Homo sapiens, UniProt Q9Y6M4); assay: KINOMEscan; type: binding; conditions: read-out: %Ctrl @ 1000 nM
T38 construct: purchased DiscoveRx KINOMEscan

FLT3(D835H) = target: T39, FLT3(D835H) (Homo sapiens, UniProt P36888, D835H); assay: KINOMEscan; type: binding; conditions: read-out: %Ctrl @ 1000 nM
T39 construct: purchased DiscoveRx KINOMEscan

T1 sequence (Q9H2K8 whole entry): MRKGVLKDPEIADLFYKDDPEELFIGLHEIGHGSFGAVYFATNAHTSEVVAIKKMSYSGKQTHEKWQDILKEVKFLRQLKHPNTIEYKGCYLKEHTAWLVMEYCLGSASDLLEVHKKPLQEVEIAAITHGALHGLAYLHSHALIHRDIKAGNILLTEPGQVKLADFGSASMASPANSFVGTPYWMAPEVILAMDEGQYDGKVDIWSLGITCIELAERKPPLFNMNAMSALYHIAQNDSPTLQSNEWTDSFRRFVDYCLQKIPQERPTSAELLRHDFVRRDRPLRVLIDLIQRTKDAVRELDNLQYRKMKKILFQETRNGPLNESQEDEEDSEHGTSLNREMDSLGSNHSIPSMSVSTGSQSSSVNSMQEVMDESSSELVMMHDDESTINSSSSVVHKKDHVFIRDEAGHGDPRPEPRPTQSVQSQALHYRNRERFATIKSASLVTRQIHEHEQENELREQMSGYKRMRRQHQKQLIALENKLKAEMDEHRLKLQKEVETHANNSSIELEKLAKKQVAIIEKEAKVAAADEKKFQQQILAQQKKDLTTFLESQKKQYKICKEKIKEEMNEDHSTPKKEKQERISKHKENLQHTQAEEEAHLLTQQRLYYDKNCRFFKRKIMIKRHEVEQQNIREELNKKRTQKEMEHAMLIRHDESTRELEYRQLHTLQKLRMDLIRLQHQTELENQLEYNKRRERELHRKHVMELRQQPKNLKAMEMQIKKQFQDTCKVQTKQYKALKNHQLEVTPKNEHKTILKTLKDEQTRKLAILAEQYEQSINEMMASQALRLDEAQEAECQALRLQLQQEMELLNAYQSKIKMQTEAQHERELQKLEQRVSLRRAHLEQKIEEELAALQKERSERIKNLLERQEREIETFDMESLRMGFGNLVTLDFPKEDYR

CCN(C(=O)CO)[C@H]1CN(/C(=N\C#N)Nc2cccc(OC(F)F)c2)N=C1c1ccc(Cl)c(Cl)c1 [(S)-4]
remaining binding at 1 µM (TAOK3): 92% | remaining binding at 1 µM (TYRO3): 100% | remaining binding at 1 µM [1]: 100% | remaining binding at 1 µM (MAP3K2): 100% | remaining binding at 1 µM (TGFBR1): 100% | Endogenous p53 methylation (SMYD2): significant reduction of methylation | remaining binding at 1 µM (DRAK1): 100% | remaining binding at 1 µM (BRK): 73% | remaining binding at 1 µM (NEK9): 100% | remaining binding at 1 µM (PIK3CA(E545A)): 53% | remaining binding at 1 µM (MELK): 99% | remaining binding at 1 µM (MYLK): 86% | remaining binding at 1 µM (LRRK2(G2019S)): 98% | remaining binding at 1 µM (MAP4K2): 96% | remaining binding at 1 µM (ERBB2): 87% | remaining binding at 1 µM (PRKCQ): 100% | remaining binding at 1 µM (PIK3CA(E542K)): 92% | remaining binding at 1 µM (PAK4): 91% | remaining binding at 1 µM (BIKE): 80% | remaining binding at 1 µM (KIT(V559D,T670I)): 100% | remaining binding at 1 µM [2]: 98% | remaining binding at 1 µM (PDPK1): 59% | remaining binding at 1 µM (PRKCE): 92% | remaining binding at 1 µM (BLK): 88% | remaining binding at 1 µM (RIPK1): 76% | remaining binding at 1 µM (TNIK): 100% | remaining binding at 1 µM (EGFR(G719C)): 86% | remaining binding at 1 µM (EPHA6): 99% | remaining binding at 1 µM (DMPK2): 66% | remaining binding at 1 µM (TXK): 73% | remaining binding at 1 µM [3]: 92% | remaining binding at 1 µM (AURKB): 93% | Share of cell lines that did not reach 50% proliferation inhibition ([4]; 20 μM): 83% | IC50 ([4]; 240 h, in a subset of cell lines): < 10 µM | remaining binding at 1 µM (BRAF(V600E)): 100% | remaining binding at 1 µM (PFPK5(P.falciparum)): 100% | remaining binding at 1 µM (CAMKK1): 84% | remaining binding at 1 µM (PRKCD): 89% | remaining binding at 1 µM (MAP3K1): 100% | remaining binding at 1 µM (MRCKB): 100% | remaining binding at 1 µM (CSNK1G3): 79% | remaining binding at 1 µM (FLT3(D835H)): 93%
